Structures can show the parent of a compound that is named as a salt.

The experiment concerns the target T1, human TGR5 (Homo sapiens, UniProt Q8TDU6).
T1 construct: expressed in transfected cells; host or cells: HEK293
T1 sequence (Q8TDU6 1-330): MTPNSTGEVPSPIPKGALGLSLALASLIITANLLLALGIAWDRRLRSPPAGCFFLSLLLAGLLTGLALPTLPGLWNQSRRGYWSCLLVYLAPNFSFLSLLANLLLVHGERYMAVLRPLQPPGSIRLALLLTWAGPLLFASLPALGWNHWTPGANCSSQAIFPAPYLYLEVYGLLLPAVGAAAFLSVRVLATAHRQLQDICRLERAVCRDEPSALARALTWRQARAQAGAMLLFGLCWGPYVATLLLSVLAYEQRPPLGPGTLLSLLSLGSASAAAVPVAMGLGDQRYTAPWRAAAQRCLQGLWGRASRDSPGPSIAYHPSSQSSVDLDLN
In words: Cell-based TGR5 assay (cAMP generation, HTRF). Particulars: HEK293 cells stably transfected with human TGR5; cAMP by HTRF; 30 minutes at 37° C.; read-out: pEC50 Human TGR5 (converted). In a few lines: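 First, compounds in 3-fold serial dilution were placed in HBSS with 10 mM HEPES pH 7.4 and 0.5 mM IBMX. Next, human TGR5-expressing HEK293 cells were added and incubated 30 min at 37° C. Finally, cAMP was detected by HTRF and pEC50 derived by logistic fitting.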
A general note: Time-resolved FRET reads energy transfer from a long-lived donor to a nearby acceptor.
On to `CS(=O)(=O)c1ccc(Cl)cc1CNC1(c2cnccc2-c2ccccc2OC2CC2)CC1` [Compound I-43, N-[(5-chloro-2-methanesulfonylphenyl)methyl]-1-[4-(2-cyclopropoxyphenyl)pyridin-3-yl]cyclopropan-1-amine], for which the EC50 is 126 to 1000 nM.
In the case of `Clc1cc(Cl)cc(CNC2(c3cnccc3-c3ccccc3OC3CC3)CC2)c1` [Compound I-44, 1-[4-(2-cyclopropoxyphenyl)pyridin-3-yl]-N-[(3,5-dichlorophenyl)methyl]cyclopropan-1-amine], the EC50 is 1260 to 10000 nM.
For the compound `COc1ccccc1-c1ccncc1C1(OCc2cc(Cl)ccc2Cl)CC1` [Compound I-45, 3-[1-[(2,5-dichlorophenyl)methoxy]cyclopropyl]-4-(2-methoxyphenyl)pyridine], the EC50 is less than 100 nM.
To `Clc1ccc(Cl)c(COC2(c3cnccc3-c3ccccc3OC3CC3)CC2)c1` [Compound I-46, 4-(2-cyclopropoxyphenyl)-3-{1-[(2,5-dichlorophenyl)methoxy]cyclopropyl}pyridine] belongs less than 100 nM.
In the case of `Clc1cccc(COC2(c3cnccc3-c3ccccc3OC3CC3)CC2)c1Cl` [Compound I-47, 4-(2-cyclopropoxyphenyl)-3-{1-[(2,3-dichlorophenyl)methoxy]cyclopropyl}pyridine] it was 126 to 1000 nM; in that of `Clc1ccc(COC2(c3cnccc3-c3ccccc3OC3CC3)CC2)c(Cl)c1` [Compound I-48, 4-(2-cyclopropoxyphenyl)-3-{1-[(2,4-dichlorophenyl)methoxy]cyclopropyl}pyridine], 126 to 1000 nM; in that of `Clc1ccc(Cl)c(COC2(c3cnccc3-c3ccccc3OC3CCC3)CC2)c1` [Compound I-49, 4-(2-cyclobutoxyphenyl)-3-{1-[(2,5-dichlorophenyl)methoxy]cyclopropyl}pyridine], less than 100 nM.
In the case of `Fc1ccccc1-c1ccncc1C1(OCc2cc(Cl)ccc2Cl)CC1` [Compound I-50, 3-{1-[(2,5-dichlorophenyl)methoxy]cyclopropyl}-4-(2-fluorophenyl)pyridine], the EC50 is 1260 to 10000 nM.
For the compound `FC(F)(F)c1ccc(Cl)cc1COC1(c2cnccc2-c2ccccc2OC2CC2)CC1` [Compound I-51, 3-(1-{[5-chloro-2-(trifluoromethyl)phenyl]methoxy}cyclopropyl)-4-(2-cyclopropoxyphenyl) pyridine], the EC50 was 126 to 1000 nM.
In the case of `FC(F)(F)c1ccc(Cl)c(COC2(c3cnccc3-c3ccccc3OC3CC3)CC2)c1` [Compound I-52, 3-(1-{[2-chloro-5-(trifluoromethyl)phenyl]methoxy}cyclopropyl)-4-(2-cyclopropoxyphenyl)pyridine] it was less than 100 nM; in that of `Clc1ccc(C2CC2)cc1COC1(c2cnccc2-c2ccccc2OC2CC2)CC1` [Compound I-53, 3-{1-[(2-chloro-5-cyclopropylphenyl)methoxy]cyclopropyl}-4-(2-cyclopropoxyphenyl)pyridine], less than 100 nM.
In the case of `Cc1ccc(Cl)c(COC2(c3cnccc3-c3ccccc3OC3CC3)CC2)c1` [Compound I-54, 3-{1-[(2-chloro-5-methylphenyl)methoxy]cyclopropyl}-4-(2-cyclopropoxyphenyl)pyridine] it was less than 100 nM; in that of `Cc1ccc(Cl)cc1COC1(c2cnccc2-c2ccccc2OC2CC2)CC1` [Compound I-55, 3-{1-[(5-chloro-2-methylphenyl)methoxy]cyclopropyl}-4-(2-cyclopropoxyphenyl)pyridine], less than 100 nM.
To `Clc1cc(Cl)cc(COC2(c3cnccc3-c3ccccc3OC3CC3)CC2)c1` [Compound I-56, 4-(2-cyclopropoxyphenyl)-3-{1-[(3,5-dichlorophenyl)methoxy]cyclopropyl}pyridine] belongs 1260 to 10000 nM; to `NC(=O)N(Cc1cc(Cl)ccc1Cl)C1(c2cnccc2-c2ccccc2OC2CC2)CC1` [Compound I-57, 1-[1-[4-(2-cyclopropoxyphenyl)pyridin-3-yl]cyclopropyl]-1-[(2,5-dichloro-phenyl)methyl]urea], 1260 to 10000 nM; to `CN(Cc1cc(Cl)ccc1Cl)C1(c2cnccc2-c2ccccc2OC2CC2)CC1` [Compound I-58, 1-[4-(2-cyclopropoxyphenyl)pyridin-3-yl]-N-[(2,5-dichlorophenyl)methyl]-N-1-amine], 1260 to 10000 nM.
As for `Clc1ccc(Cl)c(COC2(c3cnccc3-c3ccccc3OC3CC3)COC2)c1` [Compound I-59, 4-(2-cyclopropoxyphenyl)-3-[3-[(2,5-dichlorophenyl)methoxy]oxetan-3-yl]pyridine], the EC50 is less than 100 nM.
As for `O=C(NCCCCCc1cc(Cl)c(CNC2(c3cnccc3-c3ccccc3OC3CC3)CC2)cc1Cl)NC[C@H](O)[C@@H](O)[C@H](O)[C@H](O)CO` [Compound I-60, 1-(5-[2,5-dichloro-4-[([1-[4-(2-cyclopropoxyphenyl)pyridin-3-yl]cyclopropyl]amino)methyl]phenyl]pentyl)-3-[(2S,3R,4R,5R)-2,3,4,5,6-pentahydroxyhexyl]urea hydrochloride], the EC50 was less than 100 nM.
To `O=C(O)CCCCc1cc(Cl)c(CNC2(c3cnccc3-c3ccccc3OC3CC3)CC2)cc1Cl` [Compound I-61, 5-[2,5-dichloro-4-[([1-[4-(2-cyclopropoxyphenyl)pyridin-3-yl]cyclopropyl]amino)methyl]phenyl]pentanoic acid] belongs 126 to 1000 nM; to `O=C(CCCCc1cc(Cl)c(CNC2(c3cnccc3-c3ccccc3OC3CC3)CC2)cc1Cl)NC[C@H](O)[C@@H](O)[C@H](O)[C@H](O)CO` [Compound I-62, 5-[2,5-dichloro-4-[([1-[4-(2-cyclopropoxyphenyl)pyridin-3-yl]cyclopropyl]amino)methyl]phenyl]-N-[(2S,3R,4R,5R)-2,3,4,5,6-pentahydroxyhexyl]pentanamide], 126 to 1000 nM.
As to `O=C(O)CCCC(=O)N(CCCCc1cc(Cl)c(CNC2(c3cnccc3-c3ccccc3OC3CC3)CC2)cc1Cl)C[C@H](O)[C@@H](O)[C@H](O)[C@H](O)CO` [Compound I-63, 4-[(4-[2,5-dichloro-4-[([1-[4-(2-cyclopropoxyphenyl)pyridin-3-yl]cyclopropyl]amino)methyl]phenyl]butyl) [(2S,3R,4R,5R)-2,3,4,5,6-pentahydroxyhexyl]carbamoyl]butanoic acid], the EC50 is 126 to 1000 nM.
In the case of `O=C(NCCCCc1ccc(Cl)c(CNC2(c3cnccc3-c3ccccc3OC3CC3)CC2)c1)NC[C@H](O)[C@@H](O)[C@H](O)[C@H](O)CO` [Compound I-64, 1-(4-[4-chloro-3-[([1-[4-(2-cyclopropoxyphenyl)pyridin-3-yl]cyclopropyl]amino)methyl]phenyl]butyl)-3-[(2S,3R,4R,5R)-2,3,4,5,6-pentahydroxyhexyl]urea] it was less than 100 nM; in that of `Cc1cc(COC2(c3cnccc3-c3ccccc3OC3CC3)CC2)c(Cl)cc1CCCCNC(=O)NC[C@H](O)[C@@H](O)[C@H](O)[C@H](O)CO` [Compound I-65, 1-[4-[5-chloro-4-([1-[4-(2-cyclopropoxyphenyl)pyridin-3-yl]cyclopropoxy]methyl)-2-methylphenyl]butyl]-3-[(2S,3R,4R,5R)-2,3,4,5,6-pentahydroxyhexyl]urea], less than 100 nM.
`OC[C@@H](O)[C@@H](O)[C@H](O)[C@@H](O)CNCCCCc1cc(Cl)c(COC2(c3cnccc3-c3ccccc3OC3CC3)CC2)cc1Cl` [Compound I-66, (2R,3R,4R,5S)-6-(4-(2,5-dichloro-4-((1-(4-(2-cyclopropoxyphenyl)pyridin-3-yl)cyclopropoxy)methyl)phenyl)butylamino)hexane-1,2,3,4,5-pentaol]: the EC50 is 126 to 1000 nM.
In the case of `O=C(C1CCOCC1)N(CCCCc1cc(Cl)c(COC2(c3cnccc3-c3ccccc3OC3CC3)CC2)cc1Cl)C[C@H](O)[C@@H](O)[C@H](O)[C@H](O)CO` [Compound I-67, N-(4-(2,5-dichloro-4-((1-(4-(2-cyclopropoxyphenyl)pyridin-3-yl)cyclopropoxy)methyl)phenyl)butyl)-N-((2S,3R,4R,5R)-2,3,4,5,6-pentahydroxyhexyl)tetrahydro-2H-pyran-4-carboxamide] it was less than 100 nM; in that of `CC(=O)N(CCCCc1cc(Cl)c(COC2(c3cnccc3-c3ccccc3OC3CC3)CC2)cc1Cl)C[C@H](O)[C@@H](O)[C@H](O)[C@H](O)CO` [Compound I-68, N-{4-[2,5-dichloro-4-({1-[4-(2-cyclopropoxyphenyl)pyridin-3-yl]cyclopropoxy}methyl)phenyl]butyl}-N-[(2S,3R,4R,5R)-2,3,4,5,6-pentahydroxyhexyl]acetamide], less than 100 nM; in that of `CC(C)C(=O)N(CCCCc1cc(Cl)c(COC2(c3cnccc3-c3ccccc3OC3CC3)CC2)cc1Cl)C[C@H](O)[C@@H](O)[C@H](O)[C@H](O)CO` [Compound I-69, N-{4-[2,5-dichloro-4-({1-[4-(2-cyclopropoxyphenyl)pyridin-3-yl]cyclopropoxy}methyl)phenyl]butyl}-2-methyl-N-[(2S,3R,4R,5R)-2,3,4,5,6-pentahydroxyhexyl]propanamide], 126 to 1000 nM.
To `O=C(CCS(=O)(=O)c1ccccc1)N(CCCCc1cc(Cl)c(COC2(c3cnccc3-c3ccccc3OC3CC3)CC2)cc1Cl)C[C@H](O)[C@@H](O)[C@H](O)[C@H](O)CO` [Compound I-70, 3-(benzenesulfonyl)-N-{4-[2,5-dichloro-4-({1-[4-(2-cyclopropoxyphenyl)pyridin-3-yl]cyclopropoxy}methyl)phenyl]butyl}-N-[(2S,3R,4R,5R)-2,3,4,5,6-pentahydroxyhexyl]propanamide] belongs 126 to 1000 nM.

The values are drawn from patent publication US12084472B2 (Ardelyx, Inc., priority 2015, dated 2024).
